This is an account of results in paper PMC6897945, “CytA, a reductase in the cytorhodin biosynthesis pathway, inactivates anthracycline drugs in Streptomyces” (Communications Biology, 2019).

One data set has as its system MDA-MB-468 cells. The settings on record: cited from earlier work.
The next data set deals with B. thuringiensis BT01. Nature of the data set: Antibacterial activity, broth dilution MIC. Format: cell-based. The note with it: Bacillus thuringiensis. The method, then: (§1) The antibacterial activities of compounds 1–13 were assessed using twofold serial dilutions of antibacterial agents in MH broth, according to previously reported standard methods provided by Clinical and Laboratory Standards Institute (CLSI)[30]. These compounds were tested for their antibacterial activities against Bacillus subtilis BS01, Staphyloccocus aureus ATCC 29213, Staphyloccocus aureus 745524, Bacillus thuringiensis BT01, and Enterococcus faecalis ATCC 29212 using a broth dilution method.
On the technique in general: Broth dilution looks for growth in wells or tubes with falling amounts of substance.

Data set [1] concerns Staphylococcus aureus ATCC 29213. As to the kind of experiment: Antibacterial activity, broth dilution MIC. Format: cell-based. The settings on record: ATCC29213; Staphylococcus aureus ATCC 29213; triplicate; read-out: MIC values, SA1. The method, then: as §1
The next data set has as its system B. subtilis BS01. As to the kind of experiment: Antibacterial activity, broth dilution MIC. Format: cell-based. The settings on record: Bacillus subtilis; B. subtilis BS01; triplicate; read-out: MIC values, BS. The method, then: as §1
The subject of data set [2] is Staphylococcus aureus 745524. Nature of the data set: Antibacterial activity, broth dilution MIC. It counts as cell-based. The note with it: Staphylococcus aureus 745524; triplicate; read-out: MIC values, SA2. The method, then:
as §1

A further data set deals with E. faecalis ATCC 29212. Nature of the data set: Antibacterial activity, broth dilution MIC. Format: cell-based. The settings on record: Enterococcus faecalis, ATCC29212; E. faecalis ATCC 29212; triplicate; read-out: MIC values, EF. As for the experimental part: as §1
Data set [3] deals with HeLa human cervical carcinoma cell line. As to the kind of experiment: Cytotoxic activity, MTT method. Format: cell-based. The settings on record: read-out: Cytotoxic activities IC50, HeLa. An excerpt: (§2) All data were obtained in triplicate and are presented as means.
(In general: Tetrazolium assays rely on reduction of a dye to a coloured formazan, in cell work by metabolically active cells.)

The subject of data set [4] is MCF-7 human breast adenocarcinoma cell line. As to the kind of experiment: Cytotoxic activity, MTT method. It counts as cell-based. The settings on record: MCF7, read-out: Cytotoxic activities IC50, MCF-7.
Text: as §2

Data set [5] has as its system RKO human colorectal carcinoma cell line. Nature of the data set: Cytotoxic activity, MTT method. The note with it: read-out: Cytotoxic activities IC50, RKO. Format: cell-based.
Text: as §2

Data set [6] is described as follows: Cytotoxic activity, MTT method. It counts as cell-based. The settings on record: human.
Text: as §2

The test system of data set [7] is HepG2 human hepatocellular carcinoma cell line. As to the kind of experiment: Cytotoxic activity, MTT method. It counts as cell-based. The settings on record: HepG2, read-out: Cytotoxic activities IC50, HepG2.
Text: as §2

In data set [8] the test system is MDA-MB-468 human triple negative breast adenocarcinoma cell line. As to the kind of experiment: Cytotoxic activity, MTT method. It counts as cell-based. The note with it: MDA-MB-468, read-out: Cytotoxic activities IC50, MDA-MB-468.
Text: as §2

The subject of data set [9] is MDA-MB-231 human triple negative breast adenocarcinoma cell line. As to the kind of experiment: Cytotoxic activity, MTT method. Format: cell-based. The note with it: MDA-MB-231, read-out: Cytotoxic activities IC50, MDA-MB-231.
Text: as §2

Data set [10] relates to A549 human lung cancer cell line. Nature of the data set: Cytotoxic activity, MTT method. It counts as cell-based. The note with it: A549, read-out: Cytotoxic activities IC50, A549.
Text: as §2

For data set [11], the system named is Streptomyces sp. SCSIO 1666 ΔcytA mutant strain. Nature of the data set: Growth inhibition zone assay. Format: cell-based. The settings on record: ∆cytA mutant strain, Fig. 3. The text has this: (§3) We also noted that the ∆cytA mutant strain accumulated small amounts (80~100-fold lower than WT producer) of the immediate biosynthetic precursors of cosmomycins A (3) and B (4). The in vitro antimicrobial activities of compounds 1–13 against a panel of gram-positive bacteria (Table 2) provided some insight into the possible physiological significance of CytA-catalyzed reductions. Furthermore, we had observed that the ΔcytA mutant strain is clearly impaired relative to the WT strain upon addition of 6 or 7 as potential substrates. To evaluate this effect, we probed the sensitivity of Streptomyces sp. SCSIO 1666 to 6 and 7 in an inhibition zone assay (Fig. 3). A clear inhibition zone (16 mm) using the ΔcytA mutant plate was observed when supplemented with 1 μg of 6 or 7. […] That CytA production endows cosmomycin resistance provides strong evidence that the cytA gene directly confers Streptomyces. sp. SCSIO 1666 with the ability to protect itself from the effects by self-resistance to cosmomycins C and D.
(§4) Fig. 3 Sensitivity of Streptomyces sp. SCSIO 1666 toward cosmomycin C (6) and cosmomycin D (7) (1 μg) as determined by growth inhibition zone assays. […] TEXT PRINTED IN THE PICTURE: 6: ΔcytA mutant strain: 16 mm DOUBTS OF THE COPYIST ABOUT THIS PICTURE: 6, ΔcytA mutant strain: the small yellow print reads 16 mm, but it could be 15 or 18 mm / 6: the yellow double arrow marked 16 mm spans the zone around disc 6. The picture prints no measure name, so it may be the inhibition zone diameter or only a scale mark

Data set [12] concerns Streptomyces sp. SCSIO 1666 WT. Nature of the data set: Growth inhibition zone assay. It counts as cell-based. The settings on record: WT strain, Fig. 3.
Text: as §3, §4

The subject of data set [13] is five gram-positive bacteria. As to the kind of experiment: Antibacterial activities, set of five gram-positive bacteria. Format: cell-based. The settings on record: set of five gram-positive bacteria (Table 2). The method, then: as §1
The next data set deals with CytA. As to the kind of experiment: Enzyme kinetics of CytA (formation of deglycosylation products, anaerobic). Format: biochemical, Streptomyces sp. SCSIO 1666. The note with it: substrate of CytA; 0.5 μM CytA, 20 μM NADH, anaerobic. The method, then: Enzymatic reactions were carried out under anaerobic conditions in an anaerobic workstation (Don Whitley Scientific A45) containing a gas phase of N2/H2/CO2 (80:10: 10%, by vol.). ^1H, ^13C, and 2D (COSY, HMQC, HMBC and NOESY) NMR spectra were recorded at 25 °C with an Avance 700 MHz spectrometer instruments (Bruker). High-resolution mass spectra were obtained with a Maxis quadrupole-time-of-flight mass spectrometer (Bruker).
To validate the in vitro biochemical activities of CytA, we overexpressed and purified this enzyme as a soluble N-terminally His6-tagged protein from E. coli (Fig. 2a). Tris-Cl buffer was made O2 free by boiling, followed by cooling under N2 flow; NADH stock solution (dissolved in Tris-Cl), substrate stock solution (dissolved in DMSO), and enzyme solution (dissolved in Tris-Cl supplemented with 10% glycerin) were subjected to O2 eliminating process in the anaerobic workstations for at least two cycles (40 min for one cycle). CytA enzymatic activity was tested in 50 μL volume containing 50 mM Tris-Cl (pH 8.0), 25 μM substrate, 0.5 μM CytA, and 20 μM NADH, at 37 °C for 30 min. The reaction was quenched with the addition to 2 volumes MeOH. After centrifugation to remove protein, supernatants were analyzed with Agilent HPLC equipment using a Phenomenex Prodigy ODS column S5 (150 × 4.60 mm, 5 μ) and UV detection at 254 and 500 nm. Samples were eluted with a gradient elution of phase A containing 0.1% TFA in ddH2O and phase B containing 100% acetonitrile, at a flow rate of 1 mL/min.
Kinetic analyses of CytA with putative substrates 6–10, daunorubicin, doxorubicin, idarubicin, epirubicin and pirarubicin, involved a reaction volume of 20 μL consisting of 50 mM Tris-Cl (pH 8.0), 0.5 μM CytA, 20 μM NADH, […]
All assays were performed in triplicate and Km and Vmax values were calculated on the basis of curve fitting to the Michaelis-Menten equation: v = Vmax *[S]/(Km + [S]) (Supplementary Fig. 7).
For kinetics of CytA, Origin 9.0 (OriginLab Co.) was used to analyze on the basis of curve fitting to the Michaelis-Menten equation. Experiments were performed in triplicate independently. For antibacterial activity, experiments were performed in triplicate using 96-well plates.

[14] abbreviates: Huvec-12 normal cell line, read-out: Cytotoxic activities IC50, Huvec-12.
Where [15] appears, read: L02 normal cell line, read-out: Cytotoxic activities IC50, L02.

Values after ≈ are worked out from the molar mass of the structure shown. Read-outs that look alike come from different tables or passages of the source.

What is called MIC is the smallest concentration in the dilution series that meets the test's criterion for growth inhibition. In general, IC50 refers to the concentration needed to halve the response being measured. In the case of `CC[C@@]1(O)CCc2c(O)c3c(c(O)c2[C@H]1O[C@H]1C[C@H](N(C)C)[C@H](O[C@H]2C[C@H](O)[C@H](O[C@H]4CC[C@H](O)[C@H](C)O4)[C@H](C)O2)[C@H](C)O1)C(=O)c1cccc(O)c1C3=O` [Compound 4, cosmomycin B], the “cytotoxic activity against MDA-MB-468 cells” value in the data set with MDA-MB-468 cells is “devoid of activity”. Besides, the MIC turned out to be 0.25 µg/mL (≈ 0.324 µM) with B. thuringiensis BT01 (B. thuringiensis BT01, triplicate, read-out: MIC values, BT); 0.25 µg/mL (≈ 0.324 µM) in data set [1]; 0.25 µg/mL (≈ 0.324 µM) with B. subtilis BS01; 0.125 µg/mL (≈ 0.162 µM) in data set [2]; 0.03 µg/mL (≈ 0.0389 µM) with E. faecalis ATCC 29212. In addition, the concentration for half-maximal inhibition (IC50) in data set [3] stood at 17 nM; in data set [4] it was 650 nM; in data set [5], 89 nM; in data set [6] (setting [14]) it was 410 nM; in data set [6] (setting [15]), 320 nM; in data set [7], 38 nM. The IC50 is 710 nM in data set [8], 850 nM in data set [9] and 21 nM in data set [10].
The Km is the concentration of substrate that gives half-maximal velocity. A word on the kcat: it is the maximal rate divided by the concentration of active sites. Take `CC[C@@]1(O)C[C@H](O)c2c(O)c3c(c(O)c2[C@H]1C(=O)OC)C(=O)c1cccc(O)c1C3=O` [Compound 10, ε-rhodomycinone]: the “activity in growth inhibition zone assay” value in data set [11] and in [12] was “inactive” throughout. Further, the minimum inhibitory concentration (MIC) in [13] is greater than 32 µg/mL; with B. thuringiensis BT01 (BT01, read-out: MIC values, BT) it was greater than 32 µg/mL; in data set [1] it was greater than 32 µg/mL; in the data set on B. subtilis BS01 it was greater than 32 µg/mL; in data set [2] it was greater than 32 µg/mL; in the data set with E. faecalis ATCC 29212, greater than 32 µg/mL. The Km in the data set with CytA is 31.2 µM. The turnover number (kcat) with CytA amounted to 0.00233 s⁻¹. The half-maximal inhibitory concentration (IC50) is 20200 nM in data set [3]; 37300 nM in [4]; 18500 nM in data set [5]; 15300 nM in [6] (setting [14]); 11800 nM in data set [6] (setting [15]); 17200 nM in data set [7]. In addition, the half-maximal inhibitory concentration (IC50) in data set [8] was 7430 nM; in data set [9], greater than 50000 nM; in [10], 33200 nM.
